Laboratory results taken from US20110059953A1, “COMPOUNDS FOR USE IN STABILIZING P53 MUTANTS” (priority 2008, published 2011).

What was measured:
T-p53C-Y220C [1] = target: T1, T-p53C-Y220C (Homo sapiens, UniProt P04637, M133L/N239Y/N268D/V203A/Y220C); test: Melting temperature of T-p53C-Y220C, method not stated; type: binding
T1 construct: For all other experiments, the DNA coding for residues 94-312 of T-p53C was inserted into a modified pET24a(+) vector; 6xHis tag + B. stearothermophilus dihydrolipoyl acetyltransferase lipoyl domain (aa 1-85) + TEV site (N, cleaved yes); made in house; host or cells: Escherichia coli BL21 (DE3) or C41 (DE3)

T-p53C-Y220C [2] = target: T1, T-p53C-Y220C; test: Thermal denaturation using capillary DSC; type: binding; conditions: increase in Tm on adding 250 μM of the test compound; 20 μM protein
Experimental: Differential Scanning calorimetry (DSC) was used to probe the stabilising effect of the ligands on […]. For a reversible two-state system, the melting temperature, Tm, is the transition temperature where the folded and unfolded states are equally populated.
DSC experiments were performed using a Microcal VP-Capillary DSC instrument (Microcal, Amherst, Mass.) with an active cell volume of ˜125 μl. Protein samples were buffer exchanged into 25 mM NaPi, pH 7.2, 150 mM NaCl, 5 mM DTT. This buffer + the respective concentration of ligand/DMSO was used for baseline scans, so that the only difference between sample and reference cell or sample cell in the measurement and both cells in the baseline scan is the presence of the protein. A final concentration of 20 μM T-p53C-Y220C was used. A pressure of 2.5 bars (nitrogen) was applied to the cell. Temperatures from 10 to 85° C. were scanned at a rate of 250° C./h, with a filtering period of 4 seconds and feedback gain/mode set at medium. Data were analysed with ORIGIN software (Microcal).
The following tables show the results of the thermal denaturation studies using capillary DSC, where ΔTm is the increase in Tm on adding 250 μM of the test compound. The Dunnett significance test (P) value given is the calculated probability that the change in Tm is insignificant.

T-p53C-Y220C [3] = target: T1, T-p53C-Y220C; test: Thermal denaturation using fluorescence (Sypro Orange); type: binding; conditions: 10 μM protein
Experimental: This was by an adaption of the classical procedure (e.g. ref A6). Thermal unfolding was monitored by the binding of the dye Sypro Orange (5×) using a Rotor-gene 6000 (Corbett Life Science) at 270 K/h in 25 mM NaPi, 150 mM NaCl and 5 mM DTT, pH 7.2 with a protein concentration of 10 μM.
(§1) Where listed, S.E. is the calculated standard error.
as §1

T-p53C-Y220C [4] = target: T1, T-p53C-Y220C; test: 1H/15N-HSQC NMR chemical shift binding (KD NMR); conditions: KD (@ 20° C.) μM, further NMR studies, some revised values
Experimental: Uniformly ^15N-labelled core domains of T-p53C-Y220C was expressed and purified according to the above described protocol. The low molecular-weight compounds were dissolved in d^6-DMSO to make 10 mM stock solutions. To screen compound mixtures by chemical shift mapping, 10 μl of each of 4 different compounds were mixed together and 25 μl of this mixture was added to 25 μl of D2O and 500 μl of 70 μM T-p53C-Y220C (in 25 mM NaPi, 150 mM NaCl and 5 mM DTT, pH 7.2 ). […] NMR samples were freshly prepared and kept sealed under argon after degassing by repeated cycles of pumping the NMR tube under low pressure (while gently tapping the tube) and returning to atmospheric pressure using a stream of argon gas. This was done to maintain sample stability.
Using Bruker's TopSpin 2.0 software, the number of complex points in t1 was doubled by forward complex linear prediction and shifted squared sine bell window functions were applied to both dimensions prior to zero filling and Fourier transformation. A digital resolution of 2.0 Hz/point in the ^1H frequency dimension and 4.7 Hz/point in the ^15N frequency dimension was used. […] An in-house script was used to analyse chemical shift differences and map these onto PDB protein structures.
For certain compounds an array of different concentrations were used to derive KD values (KD NMR) by fitting a saturation binding equation (Δδ=c+a*[L]/(KD+[L])) to the concentration-dependent chemical shift changes of the relevant shifting peaks.

[5] = further studies on compounds described above

SMILES | effect on melting temperature (T-p53C-Y220C [1]) | ΔTm (T-p53C-Y220C [2]) [°C] | ΔTm (° C.) (T-p53C-Y220C [3]; [5]) [°C] | Kd (T-p53C-Y220C [4]) [µM] | ΔTm (° C.) (T-p53C-Y220C [3]; further compounds) [°C]
NC(=O)c1c[nH]c2ccccc12 [1H-indole-3-carboxamide] | raise its melting temperature |  |  |  | 
CCn1c2ccccc2c2cc(NC(=O)CSc3nccc(=O)[nH]3)ccc21 [PK095] |  | 0.39 |  |  | 
CCn1c2ccccc2c2cc(NC(=O)CSc3nnc(N)s3)ccc21 [PK099] |  | 0.53 | 0.53 |  | 
CCn1c2ccccc2c2cc(NC(=S)Nc3cc(S(=O)(=O)N(C)C)ccc3C)ccc21 [PK102] |  | 0.37 | 0.37 |  | 
CCn1c2ccccc2c2cc(NC(=O)CN3C(=O)NC(C)(c4ccc(C)cc4)C3=O)ccc21 (stereo not shown) [PK110] |  | 0.37 | 0.37 |  | 
CCn1c2ccccc2c2cc(NC(=O)COC(=O)Cn3cnc4c3c(=O)n(C)c(=O)n4C)ccc21 [PK114] |  | 0.39 | 0.39 |  | 
CCn1c2ccccc2c2cc(NC(=O)Cc3ccc(S(=O)(=O)N4CCOCC4)s3)ccc21 [PK115] |  | 0.49 | 0.49 |  | 
CCn1c2ccccc2c2cc(NC(=O)CN3C(=O)c4ccccc4S3(=O)=O)ccc21 [PK117] |  | 0.47 | 0.47 |  | 
CCn1c2ccccc2c2cc(NC(=O)C(C)OC(=O)c3ccc([N+](=O)[O-])o3)ccc21 (stereo not shown) [PK119] |  | 0.48 | 0.48 |  | 
CCn1c2ccccc2c2cc(NC(=O)C(C)OC(=O)c3ccc(-n4cnnn4)cc3)ccc21 (stereo not shown) [PK134] |  | 0.4 | 0.4 |  | 
CCn1c2ccccc2c2cc(NC(=O)COC(=O)c3cc(C(=O)OC)cc([N+](=O)[O-])c3)ccc21 [PK137] |  | 0.29 | 0.3 |  | 
CCn1c2ccccc2c2cc(NC(=O)COC(=O)c3ccc(-n4cnnn4)cc3)ccc21 [PK138] |  | 0.54 | 0.54 |  | 
CCn1c2ccccc2c2cc(NC(=O)COC(=O)c3ccc(NC(=O)CC#N)cc3)ccc21 [PK140] |  | 0.51 | 0.513 |  | 
CCn1c2ccccc2c2cc(NC(=O)CCc3c(C)[nH]c(=O)c(C#N)c3C)ccc21 [PK141] |  | 0.48 | 0.48 |  | 
CCCN1CCN(C(C)C(=O)Nc2ccc3c(c2)c2ccccc2n3CC)CC1 (stereo not shown) [PK142] |  | 0.26 | 0.26 |  | 
CCn1c2ccccc2c2cc(NC(=O)C(C)Sc3nc(N)cc(=O)[nH]3)ccc21 (stereo not shown) [PK143] |  | 0.24 | 0.24 |  | 
COc1ccc(N2CCN(Cc3cc4c(cc3O)[nH]c3ccccc34)CC2)cc1 [PK144] |  | 0.51 | 0.51 |  | 
CCn1c2ccccc2c2cc(CN(C)C(=O)NC3CCS(=O)(=O)C3)ccc21 (stereo not shown) [PK148] |  | 0.23 | 0.225 |  | 
CCn1c2ccccc2c2cc(NC(=O)C(C)N3CCN(CC(N)=O)CC3)ccc21 (stereo not shown) [PK152] |  | 0.22 | 0.22 |  | 
CCn1c2ccccc2c2cc(NC(C)C(=O)NC(N)=O)ccc21 (stereo not shown) [PK158] |  | 0.63 | 0.63 |  | 
CCn1c2ccccc2c2cc(NC(=O)CN3C(=O)NC(C)(c4ccc(OC)cc4)C3=O)ccc21 (stereo not shown) [PK160] |  | 0.42 | 0.42 |  | 
CCn1c2ccccc2c2cc(NC(=O)CN(CC(N)=O)C(C)C)ccc21 [PK161] |  | 0.47 | 0.46 |  | 

SMILES | effect on melting temperature (T-p53C-Y220C [1]) | ΔTm (T-p53C-Y220C [2]) [°C] | ΔTm (° C.) (T-p53C-Y220C [3]; [5]) [°C] | Kd (T-p53C-Y220C [4]) [µM] | ΔTm (° C.) (T-p53C-Y220C [3]; further compounds) [°C]
CCn1c2ccccc2c2cc(CN(C)C(=O)c3nccnc3N)ccc21 [PK164] |  | 0.51 | 0.51 |  | 
CCn1c2ccccc2c2cc(NC(=O)c3ccc(OCC(N)=O)cc3)ccc21 [PK166] |  | 0.64 | 0.64 |  | 
CCNC(=S)Nc1ccc2c(c1)c1ccccc1n2CC [PK168] |  | 0.41 | 0.4 |  | 
CCn1c2ccccc2c2cc(CN(C)C3CCN(C)CC3)ccc21 [PK178] |  | 0.5 | 0.34 |  | 
CCn1c2ccccc2c2cc(CN3CCC(N4CCCCC4)CC3)ccc21 [PK188] |  | 0.39 | 0.39 |  | 
CCN(CCN(C)C)Cc1ccc2c(c1)c1ccccc1n2CC [PK189] |  | 0.23 | 0.23 |  | 
CCn1c2ccccc2c2cc(CNCCc3c[nH]c4ccccc34)ccc21 [PK193] |  | 0.3 | 0.3 |  | 
CCn1c2ccccc2c2cc(CNCCc3ccccc3)ccc21 [PK194] |  | 0.38 | 0.38 |  | 
CCn1c2ccccc2c2cc(CN3CCNCC3)ccc21 [PK198] |  | 0.25 | 0.25 |  | 
CCn1c2ccccc2c2cc(CN3CCC(N4CCN(CCO)CC4)CC3)ccc21 [PK205] |  | 0.4 | 0.4 |  | 
CCn1c2ccccc2c2cc(CNCCN(C)C)ccc21 [PK207] |  | 0.57 | 0.57 | 200 | 
CCC(CO)NCc1ccc2c(c1)c1ccccc1n2CC (stereo not shown) [PK209] |  | 0.79 | 0.793 | 97 | 
CCn1c2ccccc2c2cc(CNCCO)ccc21 [PK211] |  | 0.58 | 0.58 | 120 | 
CCn1c2ccccc2c2cc(CNCCCn3ccnc3)ccc21 [PK214] |  |  |  | 76 | 0.9
CCn1c2ccccc2c2cc(CN3CCN(C)C(CCO)C3)ccc21 (stereo not shown) [PK217] |  | 0.47 | 0.493 |  | 
CCn1c2ccccc2c2cc(CNCCCn3cc(C(=O)N4CCOCC4)nn3)ccc21 [PK219] |  | 0.85 | 0.873 |  | 
CCn1c2ccccc2c2cc(CN3CCC4(CC3)CC4C(=O)NCCc3ccccn3)ccc21 (stereo not shown) [PK220] |  | 0.64 | 0.68 |  | 
CCn1c2ccccc2c2cc(CN3CCC(n4cc(C(=O)NCCO)nn4)CC3)ccc21 [PK221] |  | 0.52 | 0.54 |  | 
Cc1ccc(CN2C[C@@H]3C[C@@H](C)N4CCC[C@@]34C2=O)o1 [PK223] |  | 0.38 | 0.40 |  | 
CCn1c2ccccc2c2cc(CN3CCCC(N4CCOCC4)C3)ccc21 (stereo not shown) [PK225] |  | 0.53 | 0.55 |  | 
CCn1c2ccccc2c2cc(C3CC4CN(C)C(=O)C45CCCN35)ccc21 (stereo not shown) [PK226] |  | 1.11 | 1.0 | 113 | 
